The source of these data is patent publication US7935708B2, “Dihydropyrazolopyrimidinone derivatives” (MSD K.K., priority 2006, dated 2011).

Assay [1] concerns Cdc2 (Cdk1) tyrosine 15 phosphorylation in NCI-H1299 cells. Kind of assay: Cdc2 (Cdk1) tyrosine 15-phosphorylation-inhibitory effect in camptothecin-treated NCI-H1299 cells (ELISA). In kind it is cell-based. Particulars: Homo sapiens, camptothecin 200 nM 16 hours, then test compound with nocodazole 8 hours, read-out: Cdc2-Y15 Phosphorylation-Inhibitory Effect (H1299, + camptothecin) (EC50). An excerpt: (§1) Pharmaceutical Text 2 (Method of Determining Drug Potency in Cells (Cdc2 (Cdk1) Tyrosine 15-Phosphorylation-Inhibitory Effect))
(§2) Fetal bovine serum (FBS) was obtained from Morgate; media RPMI1640 and DMEM were from Invitrogen; camptothecin was from Sigma; gemcitabine was from Nippon Eli Lilly; nocodazole and protease inhibitor cocktail were from Sigma; rabbit anti-Cdc2 antibody and mouse anti-Cdc2 antibody were from Santa Cruz Biotechnology; rabbit anti-tyrosine 15-phosphorylated Cdc2 antibody and horseradish peroxidase-labeled anti-mouse IgG antibody were from Cell Signaling Technology; sure blue reserve TMB peroxidase substrate was from Kirkegaard and Perry Laboratories.
(§3) Human non-small cell lung cancer cells (NCI-H1299) and human colon cancer cells (WiDr) were obtained from American Type Culture Collection (ATCC).
(§4) c) Method of Effect Determination:
In the method of using NCI-H1299 cells, the cells were suspended in RPMI1640 containing 10% FBS, and the cell suspension was applied to a 96-well Nunclondelta-processed plastic plate (bought from Nunc), in an amount of 2000 cells/100 μL/well, in which the cells were incubated overnight in 5% CO2-95% air at 37° C. Camptothecin was dissolved in dimethylsulfoxide (DMSO), and diluted with RPMI1640 containing 10% FBS, and then this was applied to the plate on which the cells had been previously sowed, in an amount of 50 μL/well in such a manner that the final concentration of camptothecin could be 200 nM. Then, the cells were incubated for 16 hours at 37° C. in 5% CO2-95% air. The test compound was stepwise diluted with DMSO, then diluted with 4000 nM nocodazole-containing RPMI1640 containing 10% FBS, and applied to the plate on which the camptothecin-treated cells had been sowed, in an amount of 50 μL/well. The cells were incubated for 8 hours at 37° C. in 5% CO2-95% air, then the medium was removed, and a cytolytic buffer was added to the plate in an amount of 100 μL/well, shaken at 4° C. for 2 hours, then frozen at −80° C., and melted to give a cell solution. Cdc2 and tyrosine 15-phosphorylated Cdc2 in the cell solution were determined through enzyme-linked immunosorbent assay (ELISA), and the ratio of tyrosine 15-phosphorylated Cdc2 to Cdc2 was calculated to obtain the 50% phosphorylation-inhibitory concentration of the test compound to the cells (EC50, nM). The cytolytic buffer used herein is an aqueous solution containing 20 mM Hepes (pH 7.5), 150 mM sodium chloride, 1 mM disodium ethylenediaminetetraacetate, 0.1% polyoxyethylene (10) octylphenyl ether, 1% protease inhibitor cocktail, 1 mM dithiothreitol, 2 mM sodium orthovanadate, 10 mM sodium fluoride and 10 mM glycerol diphosphate. Cdc2 was determined through ELISA as follows: A rabbit anti-Cdc2 antibody solution, which had been diluted 200-fold with 50 mM carbonate-bicarbonate buffer (pH 9.6), was applied to a 96-well maxisorpimmuno plate (bought from Nunc), in an amount of 50 μL/well, and statically kept overnight at 4° C. so as to fix the antibody on the plate. Next, this was washed three times with phosphate-buffered saline (PBS), and 5% bovine serum albumin-containing PBS (5% BSA/PBS) was added thereto in an amount of 300 μL/well, and statically kept at room temperature for 2 hours, and then again washed three times with PBS. A mouse anti-Cdc2 antibody solution that had been diluted 100-fold with 0.05% polyoxyethylene sorbitan monolaurate and 1% BSA-containing Tris-HCl-buffered saline (1% BSA/TBS-T) was added to it in an amount of 50 μL/well, and the cell solution was added thereto in an amount of 5 μL/well and statically kept overnight at 4° C. Next, this was washed three times with 0.05% polyoxyethylene sorbitan monolaurate and 0.1% BSA-containing Tris-HCl-buffered saline (0.1% BSA/TBS-T), and then a horseradish peroxidase-labeled anti-mouse IgG antibody solution that had been diluted 2000-fold with 1% BSA/TBS-T was added thereto in an amount of 70 μL/well, and statically kept at room temperature for 3 hours. […]

Assay [2] has as its system Cdc2 (Cdk1) tyrosine 15 phosphorylation in WiDr cells. As to the kind of experiment: Cdc2 (Cdk1) tyrosine 15-phosphorylation-inhibitory effect in gemcitabine-treated WiDr cells (ELISA). In kind it is cell-based. Particulars: Homo sapiens, gemcitabine 100 nM 24 hours, then test compound with nocodazole 8 hours, read-out: Cdc2-Y15 Phosphorylation-Inhibitory Effect (WiDr, + gemcitabine) (EC50).
Description: as §1, §2, §3, §4
In the method of using WiDr cells, the cells were suspended in DMEM containing 10% FBS, and the cell suspension was applied to a 96-well Nunclondelta-processed plastic plate in an amount of 2000 cells/100 μL/well, in which the cells were incubated overnight in 5% CO2-95% air at 37° C. Gemcitabine was dissolved in PBS, and diluted with DMEM containing 10% FBS, and then this was applied to the plate on which the cells had been previously sowed, in an amount of 50 μL/well in such a manner that the final concentration of gemcitabine could be 100 nM. Then, the cells were incubated for 24 hours at 37° C. in 5% CO2-95% air. The test compound was stepwise diluted with DMSO, then diluted with 1200 nM nocodazole-containing DMEM containing 10% FBS, and applied to the plate on which the gemcitabine-treated cells had been sowed, in an amount of 50 μL/well. The cells were incubated for 8 hours at 37° C. in 5% CO2-95% air, then the culture was removed, and a cytolytic buffer was added to the plate in an amount of 100 μL/well, shaken at 4° C. for 2 hours, then frozen at −80° C., and melted to give a cell solution. Cdc2 and tyrosine 15-phosphorylated Cdc2 in the cell solution were determined through ELISA, and the ratio of tyrosine 15-phosphorylated Cdc2 to Cdc2 was calculated to obtain the 50% phosphorylation-inhibitory concentration of the test compound to the cells (EC50, nM). Cdc2 was determined through ELISA as follows: A rabbit anti-Cdc2 antibody solution, which had been diluted 200-fold with 50 mM carbonate-bicarbonate buffer (pH 9.6), was applied to a 96-well maxisorp plastic plate in an amount of 50 μL/well, and statically kept overnight at 4° C. so as to fix the antibody on the plate. Next, this was washed three times with PBS, and 5% BSA/PBS was added thereto in an amount of 300 μL/well, and statically kept at room temperature for 2 hours, and then again washed three times with PBS. A mouse anti-Cdc2 antibody solution that had been diluted 100-fold with 1% BSA/TBS-T was added to it in an amount of 50 μL/well, and the cell solution was added thereto in an amount of 10 μL/well and statically kept overnight at 4° C. Next, this was washed three times with 0.1% BSA/TBS-T, and then a horseradish peroxidase-labeled anti-mouse IgG antibody solution that had been diluted 2000-fold with 1% BSA/TBS-T was added thereto in an amount of 70 μL/well, and statically kept at room temperature for 3 hours. Finally, this was washed five times with 0.1% BSA/TBS-T, then a substrate of sure blue reserve TMB peroxidase was added to it in an amount of 100 μL/well, and left for coloration in a dark place at room temperature for 15 minutes. Then, 1 M hydrochloric acid was added to it in an amount of 100 μL/well to stop the reaction, and this was analyzed through colorimetry. […]
A general note: In an ELISA, binding on a coated surface is turned into a signal by an enzyme label.

Turning to `C=CCn1c(=O)c2cnc(Nc3ccc(N4CCN(C)CC4)cc3)nc2n1-c1cccc(N2CCN(C)C2=O)n1` [Example 148, 2-allyl-1-[6-(3-methyl-2-oxoimidazolidin-1-yl)pyridin-2-yl]-6-{[4-(4-methylpiperazin-1-yl)phenyl]amino}-1,2-dihydro-3H-pyrazolo[3,4-d]pyrimidin-3-one], the figures for the EC50 in assay [1] and in assay [2] were 79 nM and 86 nM, respectively.

In the case of `C=CCn1c(=O)c2cnc(Nc3ccc(N4CCN(C)CC4)c(CO)c3)nc2n1-c1ccsc1` [Example 3, 2-allyl-6-{[3-(hydroxymethyl)-4-(4-methylpiperazin-1-yl)phenyl]amino}-1-(3-thienyl)-1,2-dihydro-3H-pyrazolo[3,4-d]pyrimidin-3-one], the EC50 in assay [1] came to 61 nM; in assay [2], 130 nM.

Broadly, the EC50 is the concentration needed to bring the measured effect to its halfway point.
